Values quoted from earlier work, collected in patent US7947285B2, “Methods for preventing post endoscopic retrograde cholangiopancreatography pancreatitis” (priority 2003, dated 2011).

Columns and labels:
post-ERCP pancreatitis [1] = details: high-risk patients; two large controlled trials; cited from earlier work
post-ERCP pancreatitis [2] = details: prophylaxis; meta-analysis of 28 clinical trials; cited from earlier work
post-ERCP pancreatitis [3] = details: cited from earlier work
post-ERCP pancreatitis [4] = details: patients without pancreas divisum; retrospective review; cited from earlier work

Compound | preventing post-ERCP pancreatitis (post-ERCP pancreatitis [1]) | reducing the frequency of post-ERCP pancreatitis (post-ERCP pancreatitis [2]) | effect on clinical course of post-ERCP pancreatitis (post-ERCP pancreatitis [3]; human, in vivo) | effect on hyperamylasemia (post-ERCP pancreatitis [3]; post-ERCP) | incidence of post-ERCP pancreatitis (post-ERCP pancreatitis [4])
CCOC(=O)c1ccc(OC(=O)CCCCCNC(=N)N)cc1 [gabexate] | ineffective | effective | – | – | –
C[C@@H](O)[C@@H]1NC(=O)[C@H](CCCCN)NC(=O)[C@@H](Cc2c[nH]c3ccccc23)NC(=O)[C@H](Cc2ccccc2)NC(=O)[C@@H](NC(=O)[C@H](N)Cc2ccccc2)CSSC[C@@H](C(=O)N[C@H](CO)[C@@H](C)O)NC1=O [octreotide] | ineffective | – | has not been show to alter the clinical course | reduces hyperamylasemia | –
secretin | – | – | – | – | might decrease the incidence
